Test results reported in PubChem BioAssay (NCI).
Several values for one entry are separate records, joined by “and”; a condition that tells them apart may be missing. Equal entries are not always repeated.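 Compound exposure: 48 hours, 5 concentrations, 96-well plates. The concentration for 50% growth inhibition is given as GI50. TGI marks complete inhibition of growth.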

Experiments:
Test in all cases: NCI anticancer screen, dose series, 48 h
[1] = system: OVCAR-4 ovarian
[2] = system: SK-MEL-5 melanoma
[3] = system: MDA-MB-435
[4] = system: UACC-62 melanoma
[5] = system: HL-60(TB) leukemia
[6] = system: U251 CNS
[7] = system: M14 melanoma
[8] = system: UO-31 renal
[9] = system: MDA-MB-231 breast
[10] = system: HCT-116 colon

Compound	GI50 [1] [µM]	TGI [1] [µM]	GI50 [2] [µM]	TGI [2] [µM]	GI50 [3] [µM]	TGI [3] [µM]	GI50 [4] [µM]	TGI [4] [µM]	GI50 [5] [µM]	TGI [5] [µM]	GI50 [6] [µM]	TGI [6] [µM]	GI50 [7] [µM]	TGI [7] [µM]	GI50 [8]	TGI [8] [µM]	GI50 [9] [µM]	TGI [9] [µM]	GI50 [10] [µM]	TGI [10] [µM]
O=[N+]([O-])/C=C\c1ccc(Cl)c(Cl)c1	11.5	24	3.57	14	1.27	2.86	10.9	30.1	2.15	10.5	0.916	2.14	1.63	3.29	1.08 µM	2.33	5.73	23.2		
COc1ccc(/C(=C2\O[C@@H]([C@H]3COC(C)(C)O3)[C@H]3OC(C)(C)O[C@@H]23)c2cc(OC)c(OC)c(OC)c2)cc1O	9.18	> 100	2.69	11.2			57.9	> 100	3.39	23.3	3.84	48.2	2.4	5.9	7.53 µM	77.8	4.58	30.7	4.14	> 100
O=C1C=CC(=Nc2ccc3c(c2)C(Br)c2ccccc2-3)O1 (centres undefined)								> 100		> 100		> 100		> 100		> 100				> 100
COc1cc(/C=C/c2cc(/C=C/c3ccc(O)c(OC)c3)n(-c3ccccc3)n2)ccc1O	0.536	4.95	0.252	1.36	0.0415	0.191			0.271	0.774					0.287 µM	1.53	0.557	6.94		
CC1=C(C(=O)Nc2ccc([N+](=O)[O-])cc2)C(c2ccc(N(C)C)cc2)C(C(=O)Nc2ccc([N+](=O)[O-])cc2)=C(C)N1		89.5		32.1						38.7		66.5		40.9		> 100				
COc1ccc(OC)c(NC(=O)C(=O)C(C(C)=O)c2nc3ccc(Cl)cc3[nH]c2=O)c1 (centres undefined)		> 50		> 50				> 50		> 50		> 50		> 50		> 50				> 50
Clc1ccc(C2N3CCCCC3[C@@H]3c4[nH]c5ccccc5c4CCN23)cc1 (some centres undefined)		> 100		> 100				> 100		55		> 100		> 100		> 100				> 100
CC12CC[C@@H](C(C)(C)O)C1[C@@H](O)CC1(C)C2CCC2[C@@]3(C)CC[C@H](O)C(C)(C)C3C(O)C[C@]21C (some centres undefined)		32.6		21.3				34.7		24.9		40		> 100		40				31.3
Cn1cc(-c2cnc3ccc(NC(=O)Nc4ccc(F)c(Br)c4)cc3n2)cn1	1.53	5.55	1.63	3.03	1.81	3.95	1.68	3.74			1.76	3.88	1.57	3.14	1.42 µM	3.07	1.78	4.14	1.87	3.75
CCCCCCCCCCCCCC(=O)OC1CC(=O)OC1CO (centres undefined)		> 100		> 100				51.1		63.9		> 100		39.7		92.6				> 100
O=C(N/N=C/c1ccccc1O)c1cccc([N+](=O)[O-])c1		> 100		> 61.3				> 70.8		> 39.3		> 100		43.2		56.5				> 100
N#CC(C(=N/O)/C(=N/O)C(C#N)c1ccc(Cl)cc1)c1ccc(Cl)cc1 (centres undefined)		> 100						> 100				> 100		> 100		> 100				> 100
CCN(CC)c1c(C(=O)/C=C/c2ccccc2)c(-c2ccccc2)nn(C)c1=O		> 100		> 100				> 100		> 100						> 100				
OCCC1(O)CCC(O)CC1 (centres undefined)		> 100		> 100				> 100		> 100		> 100		> 100		> 100				> 100
CC1(C)CC(/C=C2/OC(=O)c3ccccc32)=C(C#N)C(=O)O1		> 100		> 100				> 100				> 100		> 100		> 100				> 100
Cc1ccc(S(=O)(=O)C(CC(=O)N2CCCC2)C(=O)c2ccccc2)cc1 (centres undefined)		> 100		> 100				> 100		52.7		> 100		> 100		> 100				> 100
Cc1ccc(C)c(NC(=O)CC/C(=N\NC(=O)C(=O)NN)C(C)C(=O)c2ccc(O)cc2)c1 (centres undefined)		> 100		> 100				> 100				> 100		> 100		> 100				> 100
O=C(CI)NC1Oc2ccccc2-c2oc(=O)c(-c3ccccc3)cc21 (centres undefined)			3.26	11.4	1.68	3.16	1.73	3.25	2.09	4.94	1.73	3.22	1.67	3.2	1.86 µM	3.28				
COC1C(CN[N+](=O)CC2OC3OC(C)(C)OC3C2OC)OC2OC(C)(C)OC21 (centres undefined)		> 100		> 100				> 100		> 100		> 100		> 100		> 100				> 100
Cc1nc2cccc([N+](=O)[O-])c2c(NCCCN(C)C)c1C		> 100		> 100		> 100		> 100		17.8		> 100		> 100		> 100				59
CCCCCCCCCCCC(=O)CC(=O)c1c(O)cccc1O		34.1		35.6				90.1		> 100		31.5		32.9		29.3				31.1

Compound	GI50 [1] [µM]	TGI [1] [µM]	GI50 [2] [µM]	TGI [2] [µM]	GI50 [3] [µM]	TGI [3] [µM]	GI50 [4] [µM]	TGI [4] [µM]	GI50 [5] [µM]	TGI [5] [µM]	GI50 [6] [µM]	TGI [6] [µM]	GI50 [7] [µM]	TGI [7] [µM]	GI50 [8]	TGI [8] [µM]	GI50 [9] [µM]	TGI [9] [µM]	GI50 [10] [µM]	TGI [10] [µM]
CCCCNC1=C(C(=O)OCC)C(=O)CO1		> 100		> 100				> 100		> 100		> 100		> 100		> 100				
CCOC(=O)NC(=O)c1cn(C2OC(COC(=O)CCCCCCCCC(=O)OCC3OC(n4cc(C(=O)NC(=O)OCC)c(=O)[nH]c4=O)C(O)C3O)C(O)C2O)c(=O)[nH]c1=O (centres undefined)		> 100		> 100				> 100		> 100				> 100		> 100				> 100
N=C1CSC2=NC3=C(CCC/C3=C\c3ccccc3)C(c3ccccc3)N12 (centres undefined)				19.3				23		6.3		13.6		13		27.4				13.2
CN(C(=O)C12C3C4C1C1C2C3C41C(=O)C(C)(C)C)C(C)(C)C (centres undefined)		> 100		> 100				> 100		> 100		> 100		> 100		> 100				> 100
CC(C)CC(=O)[O-].CC(C)CC(=O)[O-].N.N.N.N.[Co+3].[O-][Cl+3]([O-])([O-])[O-]	> 100	> 100	> 100	> 100			> 100	> 100	> 100	> 100	> 100	> 100	> 100	> 100	84.7 µM and > 100 µM	> 100			> 100	> 100
CCc1c(Oc2ccc(C(C)=O)cc2)c2ccccc2[nH]c1=O	70	> 100	13	27.5	16.5	> 100	3.74	16.5			19.2	> 82	18.5	65.9	19.5 µM	> 100	7.03	39.1	18.5	52.8
CCOc1ccc2c(c1)[n+]([O-])c(S(=O)(=O)c1ccc(C)cc1)c(N)[n+]2[O-]		> 100		> 100				> 100		> 100		> 100		> 100		> 100				> 100
CCCCN(CCCC)C(=O)C(=O)C(C#N)c1ccc(C)cc1 (centres undefined)		> 100		> 100				> 100		> 100		> 100		> 100		> 100				> 100
N#C/C(=C/c1ccsc1)C(=O)c1ccccc1		> 100		> 100				> 100		> 100		> 100		> 100		> 100				> 100
COc1ccc2[nH]c3c(C)c4c(c(C)c3c2c1)CN(C)CC4		34.8		32				34.8		4.65		32		30.5		30				11.8
C=C(CN1CCc2ccccc2C1)c1ccc(C(=O)Nc2cnccn2)cc1	99.4	> 100	20.8	61			44	> 100	3.55	14	16.2	> 100			24.4 µM	> 100	27.3	> 100	16.6	68
O=C1c2cccc(NCCN=Cc3cc(O)ccc3O)c2C(=O)c2c(NCCN=Cc3cc(O)ccc3O)cccc21	0.573	2.64			1.53	3.08	1.68	3.57	1.63	4.19	0.739	2.56	2.01	4.59	1.71 µM	6.13	0.877	2.25		
COc1ccc(CNc2cc(OC)c(OC)c(OC)c2)cc1		85.1		14.6				> 100		> 24.5		24.3		> 100		> 94.6				> 42.4
CCNCCNc1cc(-c2ccc(C(=O)OC)cc2)c(C#N)c2nc3ccccc3n12			1.7	3.11	1.71	3.47	2.26	4.74	1.11	2.93	1.53	3.11	1.58	3.23	1.53 µM	2.95			0.758	2.09
COc1cc2c3c(n(C)c(=O)c2cc1OC)-c1cc2c(cc1/C3=C\CCCN1C(=O)c3ccccc3C1=O)OCO2	> 40	> 40	21.7	> 40	> 40	> 40					12.8	> 40	> 40	> 40					26.2	> 40
CC1(Cl)C(=O)NC(=O)N(C2CC(N=[N+]=[N-])C(CO)O2)C1N=[N+]=[N-] (centres undefined)		> 100		> 100				> 100		> 100		> 100		> 100		> 100				
COc1cc(C2c3cc4c(cc3C(NCC(O)CO)C3COC(=O)[C@H]23)OCO4)cc(OC)c1OC (some centres undefined)								> 100		0.543		0.766		> 100		> 100				
COc1ccc2cc1Oc1ccc(cc1)CC1c3cc(c(OC)cc3CCN1C)Oc1c3c(cc4c1C(C2)N(C)CC4)OCO3 (centres undefined)		12.7		25.1				30.1		6.66		17.3		3.52						26.8
COC(=O)C1=C(C(=O)OC)C2C=CC1C1C(Cl)=C(Cl)C21 (centres undefined)		> 100		> 100				> 100				> 100		> 100		> 100				
CCCCCCCCCC[C@@H](O)[C@@H]1CC[C@H]([C@H]2CC[C@@H]([C@@H](O)CCCCCCCCCC[C@H]3CC(CC(C)=O)C(=O)O3)O2)O1 (some centres undefined)		21.7		10.7				32.2		2.29		43.8		35.3		16.5				17.8
